Molecular target: human PAD4 (Homo sapiens (Human), UniProt Q9UM07)
Assay: In Vitro PAD4 BAEE Biochemical Assay
Details: human PAD4, BAEE substrate; 5 nM PAD4, 2 mM calcium chloride, 3 mM BAEE; geometric mean of multiple experiments
In short: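 Deimination of BAEE substrate (3 mM) measured as ammonia via o-phthalaldehyde–DTT isoindole fluorescence, 405/535 nm. Tag-free bacterially expressed human PAD4 at 5 nM with 2 mM calcium chloride, pH 7.6 MOPS buffer, 30 min compound preincubation then 2 h reaction, both at 25 °C.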

Sequence of human PAD4 (Q9UM07 2-663): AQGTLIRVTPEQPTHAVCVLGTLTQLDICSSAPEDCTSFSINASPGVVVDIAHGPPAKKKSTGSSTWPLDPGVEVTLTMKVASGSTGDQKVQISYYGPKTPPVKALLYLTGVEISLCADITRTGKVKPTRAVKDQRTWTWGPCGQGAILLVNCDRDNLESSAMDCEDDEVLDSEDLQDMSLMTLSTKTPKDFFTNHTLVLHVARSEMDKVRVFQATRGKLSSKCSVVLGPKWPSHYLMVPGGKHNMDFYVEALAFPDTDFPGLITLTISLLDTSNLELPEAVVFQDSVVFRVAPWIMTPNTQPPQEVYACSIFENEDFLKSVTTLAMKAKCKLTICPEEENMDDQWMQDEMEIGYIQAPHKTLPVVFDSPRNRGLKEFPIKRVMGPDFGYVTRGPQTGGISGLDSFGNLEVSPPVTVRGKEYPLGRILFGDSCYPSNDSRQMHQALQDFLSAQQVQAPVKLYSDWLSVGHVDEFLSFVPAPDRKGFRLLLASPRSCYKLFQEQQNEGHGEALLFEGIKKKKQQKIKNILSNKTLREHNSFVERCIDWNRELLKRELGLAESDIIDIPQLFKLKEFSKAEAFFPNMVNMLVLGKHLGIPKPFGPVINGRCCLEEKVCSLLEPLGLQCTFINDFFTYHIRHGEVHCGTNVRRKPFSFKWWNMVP

Compound | IC50 [µM]
COc1cc(C(=O)N2C[C@H]3CC[C@@H]2[C@@H]3N)cc2nc(-c3cc4ccc(N5[C@@H](C)CCCS5(=O)=O)nc4n3CC3CC3)n(C)c12 [Example 104, ((1R,4R,7R)-7-amino-2-azabicyclo[2.2.1]heptan-2-yl) (2-(1-(cyclopropylmethyl)-6-((S)-3-methyl-1,1-dioxido-1,2-thiazinan-2-yl)-1H-pyrrolo[2,3-b]pyridin-2-yl)-7-methoxy-1-methyl-1H-benzo[d]imidazol-5-yl) methanone] | 0.0793
COc1cc(C(=O)N2CCC[C@@H](N)C2)cc2nc(-c3cc4ccc(N5[C@@H](C)CCCS5(=O)=O)nc4n3CC3CC3)n(C)c12 [Example 105, ((R)-3-aminopiperidin-1-yl)(2-(1-(cyclopropylmethyl)-6-((S)-3-methyl-1,1-dioxido-1,2-thiazinan-2-yl)-1H-pyrrolo[2,3-b]pyridin-2-yl)-7-methoxy-1-methyl-1H-benzo[d]imidazol-5-yl) methanone] | 0.0296
COc1cc(C(=O)N2CCC[C@@H](N)C2)cc2nc(-c3cc4ccc(N5CCCN(C)S5(=O)=O)nc4n3CC3CC3)n(C)c12 [Example 106, (R)-(3-aminopiperidin-1-yl)(2-(1-(cyclopropylmethyl)-6-(6-methyl-1,1-dioxido-1,2,6-thiadiazinan-2-yl)-1H-pyrrolo[2,3-b]pyridin-2-yl)-7-methoxy-1-methyl-1H-benzo[d]imidazol-5-yl)methanone] | 0.434
COc1cc(C(=O)N2CCC[C@@H](N)C2)cc2nc(-c3cc4ccc(N5CCCNS5(=O)=O)nc4n3CC3CC3)n(C)c12 [Example 107, (R)-(3-aminopiperidin-1-yl)(2-(1-(cyclopropylmethyl)-6-(1,1-dioxido-1,2,6-thiadiazinan-2-yl)-1H-pyrrolo[2,3-b]pyridin-2-yl)-7-methoxy-1-methyl-1H-benzo[d]imidazol-5-yl) methanone] | 0.538
COC(=O)Nc1ccc2cc(-c3nc4cc(C(=O)N5CCC[C@@H](N)C5)cc(OC)c4n3C)n(CC3CC3)c2n1 [Example 108, (R)-methyl (2-(5-(3-aminopiperidine-1-carbonyl)-7-methoxy-1-methyl-1H-benzo[d]imidazol-2-yl)-1-(cyclopropylmethyl)-1H-pyrrolo[2,3-b]pyridin-6-yl)carbamate] | 5.76
COC(=O)N(C)c1ccc2cc(-c3nc4cc(C(=O)N5CCC[C@@H](N)C5)cc(OC)c4n3C)n(CC3CC3)c2n1 [Example 109, (R)-methyl (2-(5-(3-aminopiperidine-1-carbonyl)-7-methoxy-1-methyl-1H-benzo[d]imidazol-2-yl)-1-(cyclopropylmethyl)-1H-pyrrolo[2,3-b]pyridin-6-yl) (methyl)carbamate] | 0.401
COC(=O)N(c1ccc2cc(-c3nc4cc(C(=O)N5CCC[C@@H](N)C5)cc(OC)c4n3C)n(CC3CC3)c2n1)C1CCC1 [Example 110, (R)-methyl (2-(5-(3-aminopiperidine-1-carbonyl)-7-methoxy-1-methyl-1H-benzo[d]imidazol-2-yl)-1-(cyclopropylmethyl)-1H-pyrrolo[2,3-b]pyridin-6-yl) (cyclobutyl)carbamate] | 0.509
CCN(C(=O)OC)c1ccc2cc(-c3nc4cc(C(=O)N5CCC[C@@H](N)C5)cc(OC)c4n3C)n(CC3CC3)c2n1 [Example 111, (R)-methyl (2-(5-(3-aminopiperidine-1-carbonyl)-7-methoxy-1-methyl-1H-benzo[b]imidazol-2-yl)-1-(cyclopropylmethyl)-1H-pyrrolo [2,3-b]pyridin-6-yl) (ethyl)carbamate] | 0.234
CCN(C(=O)OC)c1ccc2cc(-c3nc4cc(C(=O)N5CCC[C@@H](N)C5)ccc4n3C3CC3)n(CC3CC3)c2n1 [Example 112, (R)-methyl (2-(5-(3-aminopiperidine-1-carbonyl)-1-cyclopropyl-1H-benzo[d]imidazol-2-yl)-1-(cyclopropylmethyl)-1H-pyrrolo [2,3-b]pyridin-6-yl) (ethyl)carbamate] | 5.15
CCN(C(=O)OC)c1ccc2cc(-c3nc4cc(C(=O)N5CCC[C@@H](N)C5)ccc4n3C3CC3)n(CC3CC3)c2n1 [Example 113, (R)-methyl (2-(5-(3-aminopiperidine-1-carbonyl)-1-cyclopropyl-1H-benzo[d]imidazol-2-yl)-1-(cyclopropylmethyl)-1H-pyrrolo[2,3-b]pyridin-6-yl)(ethyl)carbamate] | 0.196
COC(=O)N(C)c1ccc2cc(-c3nc4cc(C(=O)N5[C@H]6CC[C@@H]5[C@H](N)C6)cc(OC)c4n3C)n(CC3CC3)c2c1 [Example 114, methyl (2-(5-((1R,2R,4S)-2-amino-7-azabicyclo[2.2.1]heptane-7-carbonyl)-7-methoxy-1-methyl-1H-benzo[d]imidazol-2-yl)-1-(cyclopropylmethyl)-1H-indol-6-yl)(methyl)carbamate] | 0.0345
CCN(C(C)=O)c1ccc2cc(-c3nc4cc(C(=O)N5CCC[C@@H](N)C5)cc(OC)c4n3C)n(CC3CC3)c2n1 [Example 115, (R)-N-(2-(5-(3-aminopiperidine-1-carbonyl)-7-methoxy-1-methyl-1H-benzo[d]imidazol-2-yl)-1-(cyclopropylmethyl)-1H-pyrrolo [2,3-b]pyridin-6-yl)-N-ethylacetamide] | 0.379
CNC(=O)N(C)c1ccc2cc(-c3nc4cc(C(=O)N5CCC[C@@H](N)C5)cc(OC)c4n3C)n(CC3CC3)c2n1 [Example 116, (R)-1-(2-(5-(3-aminopiperidine-1-carbonyl)-7-methoxy-1-methyl-1H-benzo[d]imidazol-2-yl)-1-(cyclopropylmethyl)-1H-pyrrolo[2,3-b]pyridin-6-yl)-1,3-dimethylurea] | 0.496
COc1cc(C(=O)N2CCC[C@@H](N)C2)cc2nc(-c3cc4ccc(N(C)C(=O)N(C)C)nc4n3CC3CC3)n(C)c12 [Example 117, (R)-1-(2-(5-(3-aminopiperidine-1-carbonyl)-7-methoxy-1-methyl-1H-benzo[d]imidazol-2-yl)-1-(cyclopropylmethyl)-1H-pyrrolo[2,3-b]pyridin-6-yl)-1,3,3-trimethylurea] | 1.12
COc1cc(C(=O)N2[C@H]3CC[C@@H]2[C@H](N)C3)cc2nc(-c3cc4ccc([C@@H](C)NC(C)=O)nc4n3CC3CC3)n(C)c12 [Example 118, N-((R)-1-(2-(5-((1R,2R,4S)-2-amino-7-azabicyclo[2.2.1]heptane-7-carbonyl)-7-methoxy-1-methyl-1H-benzo[d]imidazol-2-yl)-1-(cyclopropylmethyl)-1H-pyrrolo[2,3-b]pyridin-6-yl)ethyl)acetamide] | 0.0456
COc1cc(C(=O)N2CCC[C@@H](N)C2)cc2nc(-c3cc4ccc([C@@H](C)NC(=O)C(C)(C)C)nc4n3CC3CC3)n(C)c12 [Example 119, N-((R)-1-(2-(5-((R)-3-aminopiperidine-1-carbonyl)-7-methoxy-1-methyl-1H-benzo[d]imidazol-2-yl)-1-(cyclopropylmethyl)-1H-pyrrolo[2,3-b]pyridin-6-yl)ethyl)pivalamide] | 0.0784
COc1cc(C(=O)N2[C@H]3CC[C@@H]2[C@H](N)C3)cc2nc(-c3cc4ccc([C@@H](C)NC(=O)C(C)(C)C)nc4n3CC3CC3)n(C)c12 [Example 120, N—((R)-1-(2-(5-((1R,2R,4S)-2-amino-7-azabicyclo[2.2.1]heptane-7-carbonyl)-7-methoxy-1-methyl-1H-benzo[d]imidazol-2-yl)-1-(cyclopropylmethyl)-1H-pyrrolo[2,3-b]pyridin-6-yl)ethyl)pivalamide] | 0.0606
COc1cc(C(=O)N2[C@H]3CC[C@@H]2[C@H](N)C3)cc2nc(-c3cc4ccc([C@@H](C)NC(=O)C56CC(F)(C5)C6)nc4n3CC3CC3)n(C)c12 [Example 121, N-((R)-1-(2-(5-((1R,2R,4S)-2-amino-7-azabicyclo[2.2.1]heptane-7-carbonyl)-7-methoxy-1-methyl-1H-benzo[d]imidazol-2-yl)-1-(cyclopropylmethyl)-1H-pyrrolo[2,3-b]pyridin-6-yl)ethyl)-3-fluorobicyclo[1.1.1]pentane-1-carboxamide] | 0.0463
COc1cc(C(=O)N2CCC[C@@H](N)C2)cc2nc(-c3cc4ccc([C@@H](C)NC(=O)C56CC(F)(C5)C6)nc4n3CC3CC3)n(C)c12 [Example 122, N-((R)-1-(2-(5-((R)-3-aminopiperidine-1-carbonyl)-7-methoxy-1-methyl-1H-benzo[d]imidazol-2-yl)-1-(cyclopropylmethyl)-1H-pyrrolo[2,3-b]pyridin-6-yl)ethyl)-3-fluorobicyclo[1.1.1]pentane-1-carboxamide] | 0.0939
COc1cc(C(=O)N2[C@H]3CC[C@@H]2[C@H](N)C3)cc2nc(-c3cc4ccc([C@@H](C)NC(=O)c5ccccc5)nc4n3CC3CC3)n(C)c12 [Example 123, N-((R)-1-(2-(5-((1R,2R,4S)-2-amino-7-azabicyclo[2.2.1]heptane-7-carbonyl)-7-methoxy-1-methyl-1H-benzo[d]imidazol-2-yl)-1-(cyclopropylmethyl)-1H-pyrrolo[2,3-b]pyridin-6-yl)ethyl)benzamide] | 0.0292
COc1cc(C(=O)N2CCC[C@@H](N)C2)cc2nc(-c3cc4ccc([C@@H](C)NC(=O)c5ccccc5)nc4n3CC3CC3)n(C)c12 [Example 124, N-((R)-1-(2-(5-((R)-3-aminopiperidine-1-carbonyl)-7-methoxy-1-methyl-1H-benzo[d]imidazol-2-yl)-1-(cyclopropylmethyl)-1H-pyrrolo[2,3-b]pyridin-6-yl)ethyl)benzamide] | 0.0546
COc1cc(C(=O)N2CCC[C@@H](N)C2)cc2nc(-c3cc4ccc([C@@H](C)NC(=O)C56CC(F)(C5)C6)nc4n3CC3CC3)n(C3CC3)c12 [Example 125, N-((R)-1-(2-(5-((R)-3-aminopiperidine-1-carbonyl)-1-cyclopropyl-7-methoxy-1H-benzo[d]imidazol-2-yl)-1-(cyclopropylmethyl)-1H-pyrrolo[2,3-b]pyridin-6-yl)ethyl)-3-fluorobicyclo[1.1.1]pentane-1-carboxamide] | 0.0713

From US11878965B2, “Inhibitors of peptidylarginine deiminases” (Gilead Sciences, Inc., priority 2020, dated 2024)
